Results taken from patent US6914045B2, “Glycopeptide antibiotics” (Wyeth Holdings Corporation, priority 2001, dated 2005).
In brackets after ≈: the same amount, converted by molar mass.

Tests used:
Enterococcus sp. = test: in vitro antibacterial evaluation, MIC by broth dilution; type: cell-based; settings: broth dilution, 18 hours at 35° C.
Summary of the method: (§1)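 Broth dilution per NCCLS standard M7-A2 in Muller-Hinton II […], with an inoculum of 5×10^5 CFU/mL and antibiotic spanning 64-0.06 μg/mL. The MIC is the lowest concentration that inhibits growth of the organism.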

Escherichia coli = test: as above; type: cell-based; settings: 18 hours at 35° C.
Summary of the method: as §1

Staphylococcus sp. = test: as above; type: cell-based; settings: broth dilution, 18 hours at 35° C.
Summary of the method: as §1

Streptococcus sp. = test: as above; type: cell-based; settings: broth dilution, 18 hours at 35° C.
Summary of the method: as §1

[1] = tested on: Enterococcus faecalis (GC 6189); test: acute lethal infection in mice; type: in vivo; settings: female CD-1 mice, intraperitoneal challenge, intravenous 30 min. after infection, 7 day survival
Summary of the method: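 Intraperitoneal challenge of female CD-1 mice with a bacterial dose lethal to untreated animals within 24-48 hr; single iv treatment 30 min later, 5 mice per dose level. Survival is scored at day 7 and pooled from three experiments to give the median effective dose.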

## CC(c1ccccc1)C1NC(=O)CNC(=O)C(CO)NC(=O)C(C(O)C2CNC(=N)N2C2OC(CO)C(O)C(O)C2O)NC(=O)C(C(O)C2CNC(=N)N2)NC(=O)C(Cc2ccc(OC3OC(CO)C(OC4OC5COC(C6CCCC6)OC5C(O)C4O)C(O)C3O)cc2)NC1=O (stereo not drawn) [Example 117, Cyclo[glycyl-β-methylphenylalanyl-O-[4-O-[4,6-O-(cyclopentylmethylene)hexopyranosyl]-hexopyranosyl]tyrosyl-3-(2-iminoiniidazolidin-4-yl)seryl-3-(3-hexopyranosyl-2-iminoimidazolidin-4-yl)serylseryl]]
Enterococcus sp.; Enterococcus avium (GC 4558)
  MIC Enterococcus avium (GC 4558): 4 µg/mL (≈ 2.91 µM)
Enterococcus sp.; Enterococcus faecalis (ATCC 29212)
  MIC Enterococcus faecalis (ATCC 29212): 2 µg/mL (≈ 1.45 µM)
Enterococcus sp.; Enterococcus faecalis (GC 2242)
  MIC Enterococcus faecalis (GC 2242): 2 µg/mL (≈ 1.45 µM)
Enterococcus sp.; Enterococcus faecalis (GC 2691)
  MIC Enterococcus faecalis (GC 2691): 4 µg/mL (≈ 2.91 µM)
Enterococcus sp.; Enterococcus faecalis (GC 3059)
  MIC Enterococcus faecalis (GC 3059): 4 µg/mL (≈ 2.91 µM)
Enterococcus sp.; Enterococcus faecalis (GC 4552)
  MIC Enterococcus faecalis (GC 4552): 4 µg/mL (≈ 2.91 µM)
Enterococcus sp.; Enterococcus faecalis (GC 4553)
  MIC Enterococcus faecalis (GC 4553): 4 µg/mL (≈ 2.91 µM)
Enterococcus sp.; Enterococcus faecalis (GC 4554)
  MIC Enterococcus faecalis (GC 4554): 2 µg/mL (≈ 1.45 µM)
Enterococcus sp.; Enterococcus faecalis (GC 6189)
  MIC Enterococcus faecalis (GC 6189): 2 µg/mL (≈ 1.45 µM)
Enterococcus sp.; Enterococcus faecium (GC 2243)
  MIC Enterococcus faecium (GC 2243): 2 µg/mL (≈ 1.45 µM)
Enterococcus sp.; Enterococcus faecium (GC 4556)
  MIC Enterococcus faecium (GC 4556): 2 µg/mL (≈ 1.45 µM)
Enterococcus sp.; Enterococcus faecium (GC 4557)
  MIC Enterococcus faecium (GC 4557): 2 µg/mL (≈ 1.45 µM)
Enterococcus sp.; strain ATCC 29212
  MIC Enterococcus faecalis (ATCC 29212): 2 µg/mL (≈ 1.45 µM)
Enterococcus sp.; strain GC 2242
  MIC Enterococcus faecalis (GC 2242): 2 µg/mL (≈ 1.45 µM)
Enterococcus sp.; strain GC 2243
  MIC Enterococcus faecium (GC 2243): 2 µg/mL (≈ 1.45 µM)
Enterococcus sp.; strain GC 2691
  MIC Enterococcus faecalis (GC 2691): 4 µg/mL (≈ 2.91 µM)
Enterococcus sp.; strain GC 3059
  MIC Enterococcus faecalis (GC 3059): 4 µg/mL (≈ 2.91 µM)
Enterococcus sp.; strain GC 4552
  MIC Enterococcus faecalis (GC 4552): 4 µg/mL (≈ 2.91 µM)
Enterococcus sp.; strain GC 4553
  MIC Enterococcus faecalis (GC 4553): 4 µg/mL (≈ 2.91 µM)
Enterococcus sp.; strain GC 4554
  MIC Enterococcus faecalis (GC 4554): 2 µg/mL (≈ 1.45 µM)
Enterococcus sp.; strain GC 4556
  MIC Enterococcus faecium (GC 4556): 2 µg/mL (≈ 1.45 µM)
Enterococcus sp.; strain GC 4557
  MIC Enterococcus faecium (GC 4557): 2 µg/mL (≈ 1.45 µM)
Enterococcus sp.; strain GC 4558
  MIC Enterococcus avium (GC 4558): 4 µg/mL (≈ 2.91 µM)
Enterococcus sp.; strain GC 6189
  MIC Enterococcus faecalis (GC 6189): 2 µg/mL (≈ 1.45 µM)
Escherichia coli; strain ATCC 25922
  MIC Escherichia coli (ATCC 25922): 64 µg/mL (≈ 46.5 µM)
Escherichia coli; strain GC 4559
  MIC Escherichia coli (GC 4559): 32 µg/mL (≈ 23.3 µM)
Escherichia coli; strain GC 4560
  MIC Escherichia coli (GC 4560): 1 µg/mL (≈ 0.727 µM)
Staphylococcus sp.
  MIC Coagulase Negative Staphylococcus (GC 4547): 1 µg/mL (≈ 0.727 µM)
  MIC Coagulase Negative Staphylococcus (GC 4548): 1 µg/mL (≈ 0.727 µM)
  MIC Coagulase Negative Staphylococcus (GC 4549): 1 µg/mL (≈ 0.727 µM)
  MIC Coagulase Negative Staphylococcus (GC 4551): 2 µg/mL (≈ 1.45 µM)
  MIC Coagulase Negative Staphylococcus (GC 6257): 0.5 µg/mL (≈ 0.364 µM)
  MIC Staphylococcus aureus (ATCC 29213): 1 µg/mL (≈ 0.727 µM)
  MIC Staphylococcus aureus (GC 1131): 2 µg/mL (≈ 1.45 µM)
  MIC Staphylococcus aureus (GC 3051): 1 µg/mL (≈ 0.727 µM)
  MIC Staphylococcus aureus (GC 3053): 2 µg/mL (≈ 1.45 µM)
  MIC Staphylococcus aureus (GC 4541): 1 µg/mL (≈ 0.727 µM)
  MIC Staphylococcus aureus (GC 4542): 1 µg/mL (≈ 0.727 µM)
  MIC Staphylococcus aureus (GC 4544): 2 µg/mL (≈ 1.45 µM)
  MIC Staphylococcus aureus (GC 4545): 1 µg/mL (≈ 0.727 µM)
  MIC Staphylococcus aureus-SMITH (GC 4543): 1 µg/mL (≈ 0.727 µM)
  MIC Staphylococcus haemolyticus (GC 4546): 1 µg/mL (≈ 0.727 µM)
Staphylococcus sp.; inoculum 5×10^5 CFU/mL, strain GC 1131
  MIC Staphylococcus aureus (GC 1131): 2 µg/mL (≈ 1.45 µM)
Staphylococcus sp.; strain ATCC 29213
  MIC Staphylococcus aureus (ATCC 29213): 1 µg/mL (≈ 0.727 µM)
Staphylococcus sp.; strain GC 3051
  MIC Staphylococcus aureus (GC 3051): 1 µg/mL (≈ 0.727 µM)
Staphylococcus sp.; strain GC 3053
  MIC Staphylococcus aureus (GC 3053): 2 µg/mL (≈ 1.45 µM)
Staphylococcus sp.; strain GC 4541
  MIC Staphylococcus aureus (GC 4541): 1 µg/mL (≈ 0.727 µM)
Staphylococcus sp.; strain GC 4542
  MIC Staphylococcus aureus (GC 4542): 1 µg/mL (≈ 0.727 µM)
Staphylococcus sp.; strain GC 4544
  MIC Staphylococcus aureus (GC 4544): 2 µg/mL (≈ 1.45 µM)
Staphylococcus sp.; strain GC 4545
  MIC Staphylococcus aureus (GC 4545): 1 µg/mL (≈ 0.727 µM)
Staphylococcus sp.; strain GC 4546
  MIC Staphylococcus haemolyticus (GC 4546): 1 µg/mL (≈ 0.727 µM)
Staphylococcus sp.; strain GC 4547
  MIC Coagulase Negative Staphylococcus (GC 4547): 1 µg/mL (≈ 0.727 µM)
Staphylococcus sp.; strain GC 4548
  MIC Coagulase Negative Staphylococcus (GC 4548): 1 µg/mL (≈ 0.727 µM)
Staphylococcus sp.; strain GC 4549
  MIC Coagulase Negative Staphylococcus (GC 4549): 1 µg/mL (≈ 0.727 µM)
Staphylococcus sp.; strain GC 4551
  MIC Coagulase Negative Staphylococcus (GC 4551): 2 µg/mL (≈ 1.45 µM)
Staphylococcus sp.; strain GC 6257
  MIC Coagulase Negative Staphylococcus (GC 6257): 0.5 µg/mL (≈ 0.364 µM)
Staphylococcus sp.; strain SMITH GC 4543
  MIC Staphylococcus aureus-SMITH (GC 4543): 1 µg/mL (≈ 0.727 µM)
Streptococcus sp.; Streptococcus agalactiae (GC 4564)
  MIC Streptococcus agalactiae (GC 4564): 0.25 µg/mL (≈ 0.182 µM)
Streptococcus sp.; Streptococcus pneumoniae (ATCC 6301)
  MIC Streptococcus pneumoniae (ATCC 6301): <0.06 µg/mL
Streptococcus sp.; Streptococcus pneumoniae (GC 1894)
  MIC Streptococcus pneumoniae (GC 1894): <0.06 µg/mL
Streptococcus sp.; Streptococcus pneumoniae (GC 4565)
  MIC Streptococcus pneumoniae (GC 4565): 0.12 µg/mL (≈ 0.0872 µM)
Streptococcus sp.; Streptococcus pyogenes (GC 4563)
  MIC Streptococcus pyogenes (GC 4563): 0.25 µg/mL (≈ 0.182 µM)
Streptococcus sp.; strain ATCC 6301
  MIC Streptococcus pneumoniae (ATCC 6301): <0.06 µg/mL
Streptococcus sp.; strain GC 1894
  MIC Streptococcus pneumoniae (GC 1894): <0.06 µg/mL
Streptococcus sp.; strain GC 4563
  MIC Streptococcus pyogenes (GC 4563): 0.25 µg/mL (≈ 0.182 µM)
Streptococcus sp.; strain GC 4564
  MIC Streptococcus agalactiae (GC 4564): 0.25 µg/mL (≈ 0.182 µM)
Streptococcus sp.; strain GC 4565
  MIC Streptococcus pneumoniae (GC 4565): 0.12 µg/mL (≈ 0.0872 µM)
[1]
  median effective dose (ED50), Enterococcus faecalis (GC 6189): 0.38 mg/kg
